Data as given in patent US7871978B2, “Bone tropic peptides” (University of Virginia Patent Foundation, priority 2004, dated 2011).
Entries after “also recorded” stand apart in the source; their conditions may differ.

How the values were obtained:
[1] = system: human bone marrow endothelial cells (HBME); assay: Peptide binding to HBME cells in culture (Avidin-FITC); set-up: key: ✓: Check marks indicate positive binding observed with FITC; −: a dash indicates a negative result
Procedure: (§1) For localization of peptide binding to cells and tissue sections, biotinylated peptides were synthesized. Fluorescein-isothiocyanate (FITC) labeled Avidin was used to localize the peptides on cells in culture and in tissue sections in vitro by epiluminescence microscopy. In addition, the biotinylated peptides were detected at concentrations as low as 1 μM in slot blots.
(§2) Bone marrow cells isolated from mouse femur were lifted with ethylenediaminetetraacetic acid (EDTA) and trypsin, resuspended, and allowed to attach on fibronectin-coated chamber slides for Avidin-FITC staining. […] The D1 cell is a multipotential mesenchymal stem-like line that was isolated from bone marrow and shown to have the characteristics of osteoprogenitor cells. This cell line has been well established and used successfully in several in vitro and in vivo studies in our laboratory. Peptide binding to human bone marrow endothelial cells (HBME) and bovine aortic endothelial cells (BAEC) in culture was also tested using the same procedure.

[2] = system: Bone marrow cells isolated from mouse femur; assay: Peptide binding to bone marrow cells in culture (Avidin-FITC); set-up: key to Localization of peptide binding: Marrow (cells in culture): ✓: Check marks indicate positive binding observed with FITC; −: a dash indicates a negative result; conditions: for Localization of peptide binding: Marrow (cells in culture): FITC; for Binding to adherent cells from bone marrow blowouts: fibronectin-coated chamber slides, Avidin-FITC staining
Procedure: as §1, §2

D1 cells = assay: Peptide binding to D1 bone marrow mesenchymal cells; conditions: for Binding to D1 cells: FIG. 4; for Binding to cells from the skeleton in vitro: mesenchymal cells from bone marrow (D1), or human bone marrow endothelial cells, avidin-FITC probe
From the text: as §2
The peptides were ranked based on the frequency with which they occurred in the plaques from which DNA was prepared and sequenced. Four of the sequences (L13, L19, R1, and R3) were synthesized as biotinylated peptide or as the control non biotinylated version of the sequence. […] The cells used in these experiments were mesenchymal cells from bone marrow (D1), or human bone marrow endothelial cells. An avidin-FITC probe detected the biotinylated peptide in areas of the cells in culture representing either extrusions from the cells or at the end of cell processes; structures reminiscent of adhesion plaques or footprints.

[3] = system: Membrane and cytosol fractions from human bone marrow endothelial cells; assay: Affinity chromatography of HBME fractions on immobilized peptide; format: binding; set-up: key to Identification of binding partners by affinity chromatography: HBME: ✓: Check marks indicate positive binding observed with FITC; −: a dash indicates a negative result; conditions: for Identification of binding partners by affinity chromatography: HBME: cell lysates
Procedure: (§3) Membrane and cytosol fractions from human bone marrow endothelial cells and bovine aortic endothelial cells were prepared and used to identify the components from within these fractions that bind to the peptides using affinity chromatography). […] Cell surface nucleolin is present at higher concentrations in actively dividing cells and is down regulated in cells when they become quiescent. Nucleolin is the apparent cell surface receptor of E-coli intimin-gamma. Cell bound intimin has been proposed to trigger a host cell response similar to the extension of filipodia when cells bind to laminin. […] Table 3 provides a summary of peptide-binding partners (putative receptors) identified by affinity chromatography of cell lysates.
Peptide Affinity Column Chromatography: Peptides identified from the phage display experiments in mouse bone and bone marrow were synthesized with an additional three-residue glycine linker and an N-terminal lysine residue. The lysine residue was used to specifically link the peptides to a support. Cell membranes from BMECs were solubilized with triton X-100. The solubilized proteins were passed through the peptide affinity column (total volume, 500 μL) followed by extensive washes with buffer. Retained proteins were eluted either with 100 mM solution of the same peptide as that immobilized on the column or with a wash of 0.1 N HCl-Glycine, pH 2.2. The eluates were analyzed by SDS PAGE and proteins observed in the gels were identified by LC/MS/MS.

[4] = system: Membrane and cytosol fractions from bovine aortic endothelial cells; assay: Affinity chromatography of BAEC fractions on immobilized peptide; format: binding; set-up: key to Identification of binding partners by affinity chromatography: BAEC: ✓: Check marks indicate positive binding observed with FITC; −: a dash indicates a negative result; conditions: cell lysates
Procedure: as §3

[5] = system: bone marrow derived mesenchymal stem cells; assay: Microarray gene expression analysis of peptide-treated mesenchymal stem cells; format: cell-based; conditions: 100 μM/ml peptide, day 7, microarray
Procedure: For gene analysis, the bone marrow derived mesenchymal stem cells were seeded at 95,000 cells per well in a 6 well plate and maintained in culture media containing 100 μM/ml of each of the 13 peptides. The media were changed every three days. The cells were harvested at day 7, total RNA isolated using the Qiagen RNeasy kit and quantified with a spectrophotometer. After initial screening of the genes with real-time PCR, four peptides were chosen for microarray analysis: L13, L19, R1, and R3 (SEQ ID NOs: 8, 10, 11, and 13, respectively).

[6] = system: prostate cancer cells (CaP); assay: Prostate cancer (CaP) cell adhesion to BMEC, cell line not distinguished; format: cell-based; conditions: for Effect on CaP cell adhesion to BMEC: LNCaP compared to C4-2, FIG. 8, preliminary results
Procedure: FIG. 8 is a graphic representation of the effects of various peptides on altering cellular adhesion to BMEC cells in vitro. LNCaP cells were compared directly to C4-2 cells for the ability of specific phage-derived peptides to alter cellular adhesion to BMEC cells in vitro. Adhesion was measured at […]. C=control (no peptide). The ordinate represents percent of acid precipitable counts bound and the abscissa indicated the cells treated and the peptides used.
The phage-derived bone-targeting peptides isolated by biopanning were tested for their ability to alter the adhesion of prostate cancer cells to a human bone marrow endothelial cell line (see FIG. 8). In this assay, LNCaP cells were compared directly to the more metastatic, bone colonizing derivative, C4-2.
This observation will be examined further and exploited by the aims of this proposal to identify the binding partners of nucleolin in prostate cancer cells as well as to investigate bone tropic peptides as potential inhibitors of prostate cancer metastasis.

SER-GLY-HIS-GLN-LEU-LEU-LEU-ASN-LYS-MET-PRO-ASN-GLY-GLY-GLY-SER (SGHQLLLNKMPNGGGS; listed as Homo sapiens) [Peptide L13]
Localization of peptide binding: HBME [1]: ✓ | Localization of peptide binding: Marrow (cells in culture) [2]: ✓ | Binding to adherent cells from bone marrow blowouts [2]: showed detectable binding | Binding to D1 cells (D1 cells): bind to D1 cells | Binding to cells from the skeleton in vitro (D1 cells): found to bind cells from the skeleton | Binding partner from HBME / bone marrow endothelial cells ([3]; biotinylated peptide immobilized on avidin-agarose): nucleolin was the major component that binds | Identification of binding partners by affinity chromatography: HBME [3]: ✓Nucleolin | Identification of binding partners by affinity chromatography: BAEC [4]: − | Fold Change: Ameloblastin [5]: +3.73 fold | Fold Change: Cartilage link protein 1 [5]: +2.00 fold | Fold Change: Eph receptor A5 [5]: +4.92 fold | Fold Change: Fibronectin 1 [5]: −2.64 fold | Fold Change: Hypothetical protein MGC28705 [5]: +4.59 fold | Fold Change: Neural cell adhesion molecule 2 [5]: +6.96 fold | Fold Change: Procollagen, type I, alpha 1 [5]: +3.03 fold | Fold Change: RIKEN cDNA 2410129E14 gene [5]: +3.03 fold | Fold Change: Syndecan 4 [5]: +3.03 fold | Fold Change: Thyroid hormone receptor alpha [5]: −1.23 fold | Fold Change: v-raf-1 leukemia viral oncogene 1 [5]: +2.46 fold | Concentrations at which peptide inhibits prostate cancer cell adhesion to BMEC ([6]; 50 μM and 100 μM tested): at both 50 μM and 100 μm | Effect on CaP cell adhesion to BMEC [6]: consistent suppression of CaP cell invasion that was saturated at the doses tested; also recorded: inhibits CaP cell adhesion to bone marrow endothelial cells

ASN-TYR-SER-HIS-LEU-ARG-VAL-LYS-LEU-PRO-THR-PRO-GLY-GLY-GLY-SER (NYSHLRVKLPTPGGGS; listed as Homo sapiens) [Peptide R1]
Localization of peptide binding: Marrow (cells in culture) [2]: ✓ | Binding to adherent cells from bone marrow blowouts [2]: showed detectable binding | Binding to D1 cells (D1 cells): bind to D1 cells | Binding to cells from the skeleton in vitro (D1 cells): found to bind cells from the skeleton | Effect on CaP cell adhesion to BMEC [6]: did not show remarkable activity

ASN-SER-MET-ILE-ALA-HIS-ASN-LYS-THR-ARG-MET-HIS-GLY-GLY-GLY-SER (NSMIAHNKTRMHGGGS; listed as Homo sapiens) [Peptide L7]
Identification of binding partners by affinity chromatography: HBME [3]: − | Identification of binding partners by affinity chromatography: BAEC [4]: −
